Assay results: the CheMixHub viscosity set

Assay: xn = mol fraction of the nth substance listed

Nc1cccc(Cl)c1 + CCCCCCO
viscosity [mPa·s], 101 kPa
Details | x1 = 0.1167 | x1 = 0.2291 | x1 = 0.3375 | x1 = 0.4421 | x1 = 0.5431 | x1 = 0.6407 | x1 = 0.735 | x1 = 0.8263 | x1 = 0.9145
303.15 K | 3.905 | 3.925 | 3.95 | 3.98 | 4.014 | 4.056 | 4.104 | 4.156 | 4.205
308.15 K | 3.383 | 3.417 | 3.454 | 3.497 | 3.545 | 3.598 | 3.654 | 3.715 | 3.776
313.15 K | 2.939 | 2.976 | 3.017 | 3.064 | 3.115 | 3.17 | 3.229 | 3.292 | 3.357
318.15 K | 2.662 | 2.681 | 2.707 | 2.738 | 2.773 | 2.814 | 2.857 | 2.906 | 2.959

Nc1cccc(Cl)c1 + CC(C)(C)O
viscosity [mPa·s], 101 kPa
Details | x1 = 0.0912 | x1 = 0.1842 | x1 = 0.279 | x1 = 0.3758 | x1 = 0.4745 | x1 = 0.5753 | x1 = 0.6782 | x1 = 0.7832 | x1 = 0.8904
303.15 K | 3.097 | 3.238 | 3.382 | 3.525 | 3.659 | 3.784 | 3.901 | 4.013 | 4.127
308.15 K | 2.819 | 2.953 | 3.085 | 3.213 | 3.333 | 3.445 | 3.546 | 3.644 | 3.742
313.15 K | 2.283 | 2.423 | 2.562 | 2.697 | 2.828 | 2.954 | 3.075 | 3.192 | 3.308
318.15 K | 1.875 | 2.015 | 2.153 | 2.289 | 2.419 | 2.544 | 2.665 | 2.781 | 2.899

CCC(=O)O + c1ccncc1
298.15 K, 101 kPa
Details | viscosity [mPa·s]
x1 = 0.0999 | 1
x1 = 0.1959 | 1.135
x1 = 0.2826 | 1.311
x1 = 0.3927 | 1.587
x1 = 0.5016 | 1.943
x1 = 0.6401 | 2.388
x1 = 0.7118 | 2.48
x1 = 0.7972 | 2.353
x1 = 0.8994 | 1.755

CCC(=O)O + Cc1ccccc1
viscosity [mPa·s], 101.33 kPa
Details | 293.15 K | 303.15 K | 308.15 K | 313.15 K | 323.15 K
x1 = 0.1231 | – | – | 0.5358 | – | –
x1 = 0.2366 | – | – | 0.5532 | – | –
x1 = 0.3487 | – | – | 0.5721 | – | –
x1 = 0.4523 | – | – | 0.597 | – | –
x1 = 0.5546 | – | – | 0.6271 | – | –
x1 = 0.6523 | – | – | 0.6628 | – | –
x1 = 0.7435 | – | – | 0.702 | – | –
x1 = 0.832 | – | – | 0.7411 | – | –
x1 = 0.9187 | – | – | 0.8128 | – | –
x2 = 0.0286 | 1.06 | 0.9144 | – | 0.8218 | 0.7431
x2 = 0.072 | 1.009 | 0.8713 | – | 0.7818 | 0.6965
x2 = 0.1175 | 0.967 | 0.8298 | – | 0.751 | 0.672
x2 = 0.1497 | 0.9304 | 0.7997 | – | 0.7176 | 0.6478
x2 = 0.2309 | 0.8623 | 0.7424 | – | 0.6663 | 0.5978
x2 = 0.3182 | 0.806 | 0.6911 | – | 0.6194 | 0.5682
x2 = 0.4118 | 0.7554 | 0.6539 | – | 0.5909 | 0.5342
x2 = 0.5137 | 0.7079 | 0.6205 | – | 0.5536 | 0.5047
x2 = 0.555 | 0.6938 | 0.6095 | – | 0.5469 | 0.4952
x2 = 0.6209 | 0.6768 | 0.5898 | – | 0.5292 | 0.4824
x2 = 0.6913 | 0.6606 | 0.5743 | – | 0.5131 | 0.4666
x2 = 0.7372 | 0.6419 | 0.5603 | – | 0.5035 | 0.4574
x2 = 0.787 | 0.6276 | 0.5507 | – | 0.494 | 0.4506
x2 = 0.8644 | 0.6088 | 0.5364 | – | 0.4799 | 0.4372
x2 = 0.9714 | 0.5928 | 0.5259 | – | 0.4684 | 0.4295

C1C[C@@H]2[C@H]3CC[C@H](C3)[C@@H]2C1 + CCCCCO
viscosity [mPa·s], 101 kPa
Details | x2 = 0.1465 | x2 = 0.2782 | x2 = 0.3987 | x2 = 0.5049 | x2 = 0.6067 | x2 = 0.6985 | x2 = 0.7827 | x2 = 0.8623 | x2 = 0.9326
293.15 K | 2.919 | 2.901 | 2.955 | 3.058 | 3.19 | 3.372 | 3.549 | 3.718 | 3.916
298.15 K | 2.621 | 2.595 | 2.622 | 2.7 | 2.807 | 2.953 | 3.095 | 3.27 | 3.411
303.15 K | 2.379 | 2.346 | 2.354 | 2.41 | 2.487 | 2.607 | 2.726 | 2.852 | 2.971
313.15 K | 1.972 | 1.92 | 1.914 | 1.922 | 1.957 | 2.033 | 2.107 | 2.18 | 2.253

[K+].[O]=[Mn](=[O])(=[O])[O-] + [2H]O[2H]
viscosity [mPa·s], 101 kPa
Details | x1 = 0.0021 | x1 = 0.0034 | x1 = 0.0052 | x1 = 0.0062
298.15 K | 1.101 | 1.092 | 1.079 | 1.082
308.15 K | 0.873 | 0.861 | 0.853 | 0.85
318.15 K | 0.717 | 0.709 | 0.703 | 0.704

Nc1ccc(S(=O)(=O)[O-])cc1.[Na+] + O
viscosity [mPa·s], 101 kPa
Details | x1 = 9e-05 | x1 = 0.00018 | x1 = 0.0009 | x1 = 0.0018 | x1 = 0.00448 | x1 = 0.00893 | x1 = 0.0133 | x1 = 0.0177
298.15 K | 0.899 | 0.9 | 0.915 | 0.93 | 0.984 | 1.076 | 1.174 | 1.281
318.15 K | 0.598 | 0.599 | 0.61 | 0.62 | 0.654 | 0.71 | 0.771 | 0.838
